Experimental data as given in US8796292B2, “Selective antibacterials for clostridium difficile infections” (GLSynthesis Inc., priority 2009, dated 2014).
In brackets after ≈: the same amount, converted by molar mass. Where a name gives a salt, the structure may show the parent alone. Read-outs that look alike come from different tables or passages of the source.

Tests used:
C. diff. (ATCC43255) = assay: clindamycin-induced C. diff. infection model in Syrian golden hamsters; assay type: in vivo; conditions: 50 mg/kg PO bid for 3 days, n = 6 hamsters
Description: Compound 359E was given orally as a suspension in 1% carboxymethylcellulose to Syrian Golden hamsters, pretreated subcutaneously with clindamycin and infected orally with C. diff. (ATCC43255) as described in Table 5.

L. casei = assay: agar dilution MIC assay of anaerobic bacteria; assay type: cell-based, Lactobacillus casei; conditions: Lacticaseibacillus casei, Micromyx Number 1722, Table 1
Procedure: (§1) Each compound was assayed against a panel of anaerobic bacteria in culture, consisting of Gram-positive organisms, such as Lactobacilli, Bifidobacteria, Clostridium spp., and Gram-negative bacteria, such as […] fragilis spp., according to guidelines of the Clinical and Laboratory Standards Institute (CLSI document M11-A7, CLSI, Wayne, Pa., 2007). […] One tenth mL of diluted bacteria containing 500-1000 colony-forming units (CFU) was plated and spread, and the plates incubated at 37° C. for 24-48 hours. MIC (minimum inhibitory concentration) is equivalent to the lowest concentration in μg/ml at which growth, i.e., colony formation, is not observed. […] Bacteria were assayed using a reference agar dilution method. Drug dilutions and drug-supplemented agar plates were prepared manually. The test organisms were maintained frozen at −80° C. The isolates were sub-cultured on Supplemented Brucella Agar (SBA) plates in a Bactron II anaerobic chamber and incubated for 48 hours at 35-36° C. in the Bactron II anaerobe chamber. Following inoculation, the drug-supplemented plates were incubated at 35° C. for 48 hours in the anaerobic environment (5% hydrogen, 5% carbon dioxide, 90% nitrogen) of the Bactron II. The MIC in μg/ml was read per Clinical and Laboratory Standards Institute guidelines.

Ba. fragilis = assay: agar dilution MIC assay of anaerobic bacteria; assay type: cell-based; conditions: Bacteroides fragilis, Micromyx Number 0123 (ATCC strain)
Procedure: as §1

L. acidophilus = assay: agar dilution MIC assay of anaerobic bacteria; assay type: cell-based; conditions: Lactobacillus acidophilus, Micromyx Number 0681, Table 1
Procedure: as §1

Bi. brevi = assay: agar dilution MIC assay of anaerobic bacteria; assay type: cell-based, Bifidobacterium brevi; conditions: Bifidobacterium; Bi. brevi, Micromyx Number 3967, Table 1
Procedure: as §1

Bi. longum = assay: agar dilution MIC assay of anaerobic bacteria; assay type: cell-based, Bifidobacterium longum; conditions: Bifidobacterium longum; Bi. longum, Micromyx Number 3968, Table 1; read-out: MIC
Procedure: as §1

E. lentum = assay: agar dilution MIC assay of anaerobic bacteria; assay type: cell-based, Eubacterium lentum; conditions: Eggerthella lenta; E. lentum, Micromyx Number 1274, Table 1; read-out: MIC
Procedure: as §1

C. difficile = assay: agar dilution MIC assay of anaerobic bacteria; assay type: cell-based, Clostridium difficile; conditions: for MIC: Clostridioides difficile, read-out: MIC
Procedure: as §1

[1] = Ba. fragilis, Gram negative, Table 1
[2] = C. difficile, Micromyx Number 1209, Table 1
[3] = C. difficile, Micromyx Number 3579, Table 1
[4] = C. difficile, Micromyx Number 3580, Table 1
[5] = C. difficile, Micromyx Number 3581, Table 1
[6] = C. difficile, Micromyx Number 3582, Table 1
[7] = C. difficile, Micromyx Number 3584, Table 1
[8] = C. difficile, Micromyx Number 3585, Table 1
[9] = C. difficile, Micromyx Number 3586, Table 1
[10] = C. difficile, Micromyx Number 3587, Table 1
[11] = C. difficile, Micromyx Number 3588, Table 1
[12] = C. difficile, Micromyx Number 3589, Table 1
[13] = C. difficile, Micromyx Number 3590, Table 1
[14] = C. difficile, Micromyx Number 3591, Table 1
[15] = C. difficile, Micromyx Number 3593, Table 1
[16] = C. difficile, Micromyx Number 3594, Table 1
[17] = C. difficile, Micromyx Number 3595, Table 1
[18] = C. difficile, Micromyx Number 4381 (ATCC strain), Table 1

Row | MIC (L. casei) [µg/mL] | MIC (Ba. fragilis; [1]) [µg/mL] | MIC (L. acidophilus) [µg/mL] | MIC (Bi. brevi) [µg/mL] | MIC (Bi. longum) [µg/mL] | MIC (E. lentum) [µg/mL] | MIC (C. difficile; [2]) [µg/mL] | MIC (C. difficile; [3]) [µg/mL] | MIC (C. difficile; [4]) [µg/mL] | MIC (C. difficile; [5]) [µg/mL] | MIC (C. difficile; [6]) [µg/mL] | MIC (C. difficile; [7]) [µg/mL] | MIC (C. difficile; [8]) [µg/mL] | MIC (C. difficile; [9]) [µg/mL] | MIC (C. difficile; [10]) [µg/mL] | MIC (C. difficile; [11]) [µg/mL] | MIC (C. difficile; [12]) [µg/mL] | MIC (C. difficile; [13]) [µg/mL] | MIC (C. difficile; [14]) [µg/mL] | MIC (C. difficile; [15]) [µg/mL] | Compound | also measured
1 | – | – | – | – | – | – | – | – | – | – | – | – | – | – | – | – | – | – | – | – | CN[C@H](CC(C)C)C(=O)N[C@H]1C(=O)N[C@@H](CC(N)=O)C(=O)N[C@H]2C(=O)N[C@H]3C(=O)N[C@H](C(=O)N[C@H](C(=O)O)c4cc(O)cc(O)c4-c4cc3ccc4O)[C@H](O)c3ccc(c(Cl)c3)Oc3cc2cc(c3O[C@@H]2O[C@H](CO)[C@@H](O)[C@H](O)[C@H]2O[C@H]2C[C@](C)(N)[C@H](O)[C@H](C)O2)Oc2ccc(cc2Cl)[C@H]1O [vancomycin HCl, reference compound] | % Survivors at 120 hr (C. diff. (ATCC43255)): 100%; Survivors at 24 hr (C. diff. (ATCC43255)): 6; Survivors at 48 hr (C. diff. (ATCC43255)): 6; Survivors at 66 hr (C. diff. (ATCC43255)): 6; Survivors at 72 hr (C. diff. (ATCC43255)): 6; Survivors at 96 hr (C. diff. (ATCC43255)): 6
2 | 2 (≈ 4.71 µM) | 1 (≈ 2.35 µM) | 4 (≈ 9.41 µM) | 0.12 (≈ 0.282 µM) | ≤ 0.03 | 0.12 (≈ 0.282 µM) | 4 (≈ 9.41 µM) | 16 (≈ 37.6 µM) | 8 (≈ 18.8 µM) | > 16 | 0.5 (≈ 1.18 µM) | 8 (≈ 18.8 µM) | 8 (≈ 18.8 µM) | 8 (≈ 18.8 µM) | 8 (≈ 18.8 µM) | 8 (≈ 18.8 µM) | > 16 | 8 (≈ 18.8 µM) | 8 (≈ 18.8 µM) | 8 (≈ 18.8 µM) | CCC[C@@H]1C[C@@H](C(=O)N[C@@H]([C@H]2O[C@H](SC)[C@H](O)[C@@H](O)[C@H]2O)[C@H](C)Cl)N(C)C1 [clindamycin, reference compound] | MIC (C. difficile; [16]): > 16 µg/mL; MIC (C. difficile; [17]): > 16 µg/mL; MIC (C. difficile; [18]): 4 µg/mL (≈ 9.41 µM)
3 | > 32 | > 32 | 8 (≈ 17.2 µM) | 32 (≈ 68.6 µM) | > 32 | 32 (≈ 68.6 µM) | 4 (≈ 8.58 µM) | 4 (≈ 8.58 µM) | 4 (≈ 8.58 µM) | 4 (≈ 8.58 µM) | 16 (≈ 34.3 µM) | 2 (≈ 4.29 µM) | 4 (≈ 8.58 µM) | 2 (≈ 4.29 µM) | 4 (≈ 8.58 µM) | 1 (≈ 2.14 µM) | 4 (≈ 8.58 µM) | 4 (≈ 8.58 µM) | 4 (≈ 8.58 µM) | 4 (≈ 8.58 µM) | CC(C)C(=O)OCCCCCn1cnc2nc(NCc3ccc(Cl)c(Cl)c3)[nH]c(=O)c21 [Compound 332E] | MIC (Ba. fragilis; B. fragilis, Table 2): > 32 µg/mL; MIC (C. difficile; C. diff., Micromyx Number 3579, Table 2): 4 µg/mL (≈ 8.58 µM); MIC (C. difficile; C. diff., Micromyx Number 3580, Table 2): 4 µg/mL (≈ 8.58 µM); MIC (C. difficile; C. diff., Micromyx Number 3581, Table 2): 2 µg/mL (≈ 4.29 µM); MIC (C. difficile; C. diff., Micromyx Number 3582 (ATCC strain), Table 2): 4 µg/mL (≈ 8.58 µM); MIC (C. difficile; [16]): 4 µg/mL (≈ 8.58 µM); MIC (C. difficile; [17]): 4 µg/mL (≈ 8.58 µM); MIC (C. difficile; [18]): 2 µg/mL (≈ 4.29 µM); potency and selectivity against C. diff. versus other Gram-positive anaerobes (in words) (C. difficile; summary of MIC panels, Tables 1 and 3): most potent and selective
